According to PubChem BioAssay AID256 (DTP/NCI, 2004):
“And” between values parts separate entries of the source, which are not always exact repeats. Equal entries are not always repeated. Inconclusive results and toxic doses are left out. Rule for the calls: active = survival T/C of 150% or more; inactive = T/C below 125% in these data.

System: CD2F1 mice, L1210 leukemia ip, survival T/C
Experiment: NCI In Vivo Anticancer Drug Screen. Data for tumor model L1210 Leukemia (intraperitoneal) in CD2F1 (CDF1) mice
Conditions: higher = longer survival
Outline: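 Read-out first: treated-group measurement over vehicle-control measurement, expressed as a ratio. Animals bore a transplanted tumor line and were dosed with compound or vehicle.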

[1] = endpoint: mean survival time, dose: 25.0 mg/kg/injection, schedule: Q01DX009 (ip), vehicle: saline
[2] = endpoint: mean survival time, dose: 100.0 mg/kg/injection, schedule: Q04DX003 (ip), vehicle: saline with Tween-80
[3] = endpoint: mean survival time, dose: 200.0 mg/kg/injection, schedule: Q04DX003 (ip), vehicle: saline with Tween-80
[4] = endpoint: mean survival time, dose: 400.0 mg/kg/injection, schedule: Q04DX003 (ip), vehicle: saline with Tween-80
[5] = endpoint: mean survival time, dose: 100.0 mg/kg/injection, schedule: Q01DX009 (ip), vehicle: saline with Tween-80
[6] = endpoint: mean survival time, dose: 200.0 mg/kg/injection, schedule: Q01DX009 (ip), vehicle: saline with Tween-80
[7] = endpoint: mean survival time, dose: 400.0 mg/kg/injection, schedule: Q01DX009 (ip), vehicle: saline with Tween-80
[8] = endpoint: mean survival time, dose: 50.0 mg/kg/injection, schedule: Q01DX009 (ip), vehicle: saline with Tween-80
[9] = endpoint: mean survival time, dose: 75.0 mg/kg/injection, schedule: Q01DX001 (ip), vehicle: saline
[10] = endpoint: mean survival time, dose: 150.0 mg/kg/injection, schedule: Q01DX001 (ip), vehicle: saline
[11] = endpoint: mean survival time, dose: 100.0 mg/kg/injection, schedule: Q04DX002 (ip), vehicle: saline with Tween-80
[12] = endpoint: mean survival time, dose: 200.0 mg/kg/injection, schedule: Q04DX002 (ip), vehicle: saline with Tween-80
[13] = endpoint: mean survival time, dose: 100.0 mg/kg/injection, schedule: Q01DX001 (ip), vehicle: saline with Tween-80
[14] = endpoint: mean survival time, dose: 200.0 mg/kg/injection, schedule: Q01DX001 (ip), vehicle: saline with Tween-80
[15] = endpoint: mean survival time, dose: 400.0 mg/kg/injection, schedule: Q01DX001 (ip), vehicle: saline with Tween-80

Measured: T/C

CCCCN=[N+]=[N-]
inactive: endpoint: mean survival time, dose: 25.0 mg/kg/injection, schedule: Q01DX009 (ip), vehicle: water 94 % of control | endpoint: mean survival time, dose: 100.0 mg/kg/injection, schedule: Q01DX009 (ip), vehicle: water 96 % of control | endpoint: mean survival time, dose: 200.0 mg/kg/injection, schedule: Q01DX009 (ip), vehicle: water 91 % of control

OC1COC(C(/C=N/Nc2ccccc2)=N/Nc2ccccc2)C1O (centres undefined)
inactive: endpoint: median survival time, dose: 25.0 mg/kg/injection, schedule: Q01DX005 (ip), vehicle: distilled water + Tween-80 97 % of control | endpoint: median survival time, dose: 50.0 mg/kg/injection, schedule: Q01DX005 (ip), vehicle: distilled water + Tween-80 94 % of control | endpoint: median survival time, dose: 100.0 mg/kg/injection, schedule: Q01DX005 (ip), vehicle: distilled water + Tween-80 87 % of control | endpoint: median survival time, dose: 200.0 mg/kg/injection, schedule: Q01DX005 (ip), vehicle: distilled water + Tween-80 92 % of control | endpoint: median survival time, dose: 400.0 mg/kg/injection, schedule: Q01DX005 (ip), vehicle: distilled water + Tween-80 92 % of control

C#CC(C)O (centres undefined)
inactive: [1] 96 % of control | endpoint: mean survival time, dose: 50.0 mg/kg/injection, schedule: Q01DX009 (ip), vehicle: saline 89 % of control

N#CC(C#N)=NNc1cccc(Cl)c1Cl
inactive: endpoint: mean survival time, dose: 5.0 mg/kg/injection, schedule: Q04DX003 (ip), vehicle: saline with Tween-80 106 % of control | endpoint: mean survival time, dose: 10.0 mg/kg/injection, schedule: Q04DX003 (ip), vehicle: saline with Tween-80 104 % of control | endpoint: mean survival time, dose: 20.0 mg/kg/injection, schedule: Q04DX003 (ip), vehicle: saline with Tween-80 101 % of control

CCOC(=O)c1c(O)csc1N
inactive: [2] 110 % of control | [3] 98 % of control | [4] 98 % of control

CC(=O)/C(=C\c1ccc(Cl)c(Cl)c1)C(=O)CCN(C)C
inactive: endpoint: median survival time, dose: 12.5 mg/kg/injection, schedule: Q01DX009 (ip), vehicle: saline 113 % of control and 98 % of control | endpoint: median survival time, dose: 25.0 mg/kg/injection, schedule: Q01DX009 (ip), vehicle: saline 95 % of control and 104 % of control and 109 % of control | endpoint: median survival time, dose: 50.0 mg/kg/injection, schedule: Q01DX009 (ip), vehicle: saline 113 % of control and 115 % of control and 110 % of control | endpoint: median survival time, dose: 100.0 mg/kg/injection, schedule: Q01DX009 (ip), vehicle: saline 97 % of control and 105 % of control

CCCCCCn1ncc(=O)[nH]c1=O
inactive: endpoint: mean survival time, dose: 12.5 mg/kg/injection, schedule: Q01DX009 (ip), vehicle: saline 101 % of control and 102 % of control (2×) | [1] 93 % of control and 98 % of control and 101 % of control | endpoint: mean survival time, dose: 200.0 mg/kg/injection, schedule: Q01DX009 (ip), vehicle: saline 96 % of control

O=c1ccccn1C1CC(O)C(CO)O1 (centres undefined)
inactive: endpoint: mean survival time, dose: 100.0 mg/kg/injection, schedule: Q01DX005 (ip), vehicle: saline 101 % of control | endpoint: mean survival time, dose: 200.0 mg/kg/injection, schedule: Q01DX005 (ip), vehicle: saline 103 % of control

O=c1[nH]c2ccccc2c2ccccc12
inactive: [5] 98 % of control | [6] 90 % of control | [7] 102 % of control

O=C(Nc1cc(Cl)ccc1Cl)c1ccc(Cl)cc1Cl
inactive: [8] 92 % of control | [5] 87 % of control | [2] 90 % of control | [6] 92 % of control | [3] 88 % of control

CC(C)CC(C)NCCO (centres undefined)
inactive: [9] 98 % of control | [10] 100 % of control

CC(C)(C)OC(=O)N1CCCC1C(=O)O (centres undefined)
inactive: [2] 96 % of control | [3] 101 % of control | [4] 110 % of control

CCCCCCCCCCCCCCCCN(C)S(=O)(=O)c1cccc(S(=O)(=O)F)c1
inactive: [2] 95 % of control | [3] 101 % of control | [4] 102 % of control

Cc1ccc(S(=O)(=O)Oc2ccc(Br)cc2)cc1
inactive: [11] 96 % of control | [12] 86 % of control

COC(=O)CSc1nn(C2OC(COC(=O)c3ccccc3)C(OC(=O)c3ccccc3)C2OC(=O)c2ccccc2)c(=O)[nH]c1=O (centres undefined)
inactive: endpoint: mean survival time, dose: 12.5 mg/kg/injection, schedule: Q01DX005 (ip), vehicle: distilled water + Tween-80 92 % of control | endpoint: mean survival time, dose: 25.0 mg/kg/injection, schedule: Q01DX005 (ip), vehicle: distilled water + Tween-80 101 % of control | endpoint: mean survival time, dose: 50.0 mg/kg/injection, schedule: Q01DX005 (ip), vehicle: distilled water + Tween-80 93 % of control | endpoint: mean survival time, dose: 100.0 mg/kg/injection, schedule: Q01DX005 (ip), vehicle: distilled water + Tween-80 90 % of control | endpoint: mean survival time, dose: 200.0 mg/kg/injection, schedule: Q01DX005 (ip), vehicle: distilled water + Tween-80 88 % of control

O=C1C(c2ccccc2)=C(c2ccccc2)CC(c2ccccc2)C1c1ccccc1 (centres undefined)
inactive: [2] 97 % of control | [3] 97 % of control | [4] 95 % of control

O=C(O)c1c(F)c(F)c2c(F)c(F)c(F)c(F)c2c1F
inactive: [2] 93 % of control | [3] 92 % of control

CCCCN(CCCC)C(=S)Nc1ccccc1
inactive: [8] 96 % of control | [13] 107 % of control | [5] 96 % of control | [14] 102 % of control | [6] 86 % of control | [15] 96 % of control

CCCCC1(CC)NC(=O)NC1=O (centres undefined)
inactive: endpoint: mean survival time, dose: 100.0 mg/kg/injection, schedule: Q01DX001 (ip), vehicle: other 92 % of control | endpoint: mean survival time, dose: 200.0 mg/kg/injection, schedule: Q01DX001 (ip), vehicle: other 92 % of control | endpoint: mean survival time, dose: 400.0 mg/kg/injection, schedule: Q01DX001 (ip), vehicle: other 87 % of control

COc1ccc2c(Cc3ccc(O)cc3)cncc2c1O
inactive: [9] 100 % of control | [10] 106 % of control | endpoint: mean survival time, dose: 300.0 mg/kg/injection, schedule: Q01DX001 (ip), vehicle: saline 98 % of control

Cc1ccc(C(=O)C(F)F)cc1
inactive: endpoint: mean survival time, dose: 50.0 mg/kg/injection, schedule: Q01DX001 (ip), vehicle: saline with Tween-80 100 % of control | [13] 101 % of control | [14] 101 % of control

NC(c1ccccc1)C(N)c1ccccc1 (centres undefined)
inactive: endpoint: mean survival time, dose: 25.0 mg/kg/injection, schedule: Q04DX003 (ip), vehicle: other 102 % of control | endpoint: mean survival time, dose: 50.0 mg/kg/injection, schedule: Q04DX003 (ip), vehicle: other 94 % of control | endpoint: mean survival time, dose: 100.0 mg/kg/injection, schedule: Q04DX003 (ip), vehicle: other 88 % of control

CCCC1(CCC)c2ccccc2C(Cl)(CCl)c2ccccc21
inactive: endpoint: mean survival time, dose: 12.5 mg/kg/injection, schedule: Q01DX009 (ip), vehicle: other 88 % of control | endpoint: mean survival time, dose: 25.0 mg/kg/injection, schedule: Q01DX009 (ip), vehicle: other 94 % of control | endpoint: mean survival time, dose: 50.0 mg/kg/injection, schedule: Q01DX009 (ip), vehicle: other 92 % of control | endpoint: mean survival time, dose: 100.0 mg/kg/injection, schedule: Q01DX009 (ip), vehicle: other 94 % of control | endpoint: mean survival time, dose: 200.0 mg/kg/injection, schedule: Q01DX009 (ip), vehicle: other 86 % of control

CC(N)(CCC(=O)O)C(=O)O (centres undefined)
inactive: [5] 96 % of control | [6] 101 % of control

Cc1cc([N+](=O)[O-])ccc1NC(=S)NC(=O)COc1ccccc1
inactive: [13] 95 % of control | [5] 93 % of control and 102 % of control | [11] 95 % of control | [2] 98 % of control | [14] 89 % of control | [6] 93 % of control | [12] 91 % of control | [3] 97 % of control | [15] 87 % of control | [7] 92 % of control | [4] 93 % of control
